# Test system: patients after acute myocardial infarction
# Assay: Angina pectoris score, total and single (frequency/attack times, duration, pain degree, dose of nitroglycerin), same clinical trial
# Assay type: in vivo, human
# Excerpt: In order to better understand the present invention, a multi-center, randomized, double-blind, double-dummy and positive drug controlled trial had been conducted. 3508 patients who were in accordance with the diagnostic standards of AMI for 28 days to 2 years and differentiated as Qi deficiency and blood stagnation syndrome by TCM were studied. 0.5 g Chinese medicine composition prepared by the method of EXAMPLE 1 (Coded as QSYQ) was administrated half an hour after meal, 3 times per day. Aspirine was used as a positive drug. The patients were treated for 1 year and observed for 6 months.
# They included the overall survival time, angina pectoris score, TCM symptom score and life quality score, where angina pectoris score, TCM symptom score and life quality score were evaluated at randomization, in 1st, 3rd, 6th, 9th, 12th month after treatment and 18th month after follow-up.
# Total angina pectoris score was described on every observation period and the change of observation in comparison with baseline. T-test or Wilcoxon rank sum test were used for inter-group comparison. Grade of total score was evaluated on every observation and Wilcoxon rank sum test was used for inter-group comparison. T-test and Pairing signed rank sum test were used for analyzing the change of total score on every observation between groups in comparison with the baseline.
# Single angina pectoris score was depicted on every observation time-point and the change of observation in comparison with baseline. Wilcoxon rank sum test was used for inter-group comparison. Pairing signed rank sum test was used for analyzing the change of total score on every observation between groups in comparison with the baseline.
# Total angina pectoris score was described on every observation period and the change of observation in comparison with the baseline. T-test or Wilcoxon rank sum test were used for inter-group comparison. Grade of total score was evaluated on every observation and Wilcoxon rank sum test was used for inter-group comparison. T-test and Pairing signed rank sum test were used for analyzing the change of total score on every observation between groups in comparison with the baseline.
# Single angina pectoris score was described on every observation time-point and the change of observation in comparison with baseline. Wilcoxon rank sum test was used for inter-group comparison. Pairing signed rank sum test was used for analyzing the change of total score on every observation between groups in comparison with the baseline.
smiles,measurement,setting,value
"CC(=O)Oc1ccccc1C(=O)O [Control group, aspirine]","change of attack times score, patients (%)","1 month after treatment-baseline, change 0, FAS",(74.81%)
same,"change of attack times score, patients (%)","1 month after treatment-baseline, change 0, PP",(74.53%)
same,"change of attack times score, patients (%)","1 month after treatment-baseline, change 1, FAS",(2.07%)
same,"change of attack times score, patients (%)","1 month after treatment-baseline, change 1, PP",(1.95%)
same,"change of attack times score, patients (%)","1 month after treatment-baseline, change 2, FAS",(2.35%)
same,"change of attack times score, patients (%)","1 month after treatment-baseline, change 2, PP",(2.08%)
same,"change of attack times score, patients (%)","1 month after treatment-baseline, change 3, FAS",(0.11%)
same,"change of attack times score, patients (%)","1 month after treatment-baseline, change 3, PP",(0.13%)
same,"change of attack times score, patients (%)","1 month after treatment-baseline, change 4, FAS",(0.06%)
same,"change of attack times score, patients (%)","1 month after treatment-baseline, change 4, PP",(0.07%)
same,"change of attack times score, patients (%)","1 month after treatment-baseline, change −1, FAS",(7.11%)
same,"change of attack times score, patients (%)","1 month after treatment-baseline, change −1, PP",(7.06%)
same,"change of attack times score, patients (%)","1 month after treatment-baseline, change −2, FAS",(11.99%)
same,"change of attack times score, patients (%)","1 month after treatment-baseline, change −2, PP",(12.63%)
same,"change of attack times score, patients (%)","1 month after treatment-baseline, change −3, FAS",(0.34%)
same,"change of attack times score, patients (%)","1 month after treatment-baseline, change −3, PP",(0.40%)
same,"change of attack times score, patients (%)","1 month after treatment-baseline, change −4, FAS",(1.03%)
same,"change of attack times score, patients (%)","1 month after treatment-baseline, change −4, PP",(1.08%)
same,"change of attack times score, patients (%)","1 month after treatment-baseline, change −5, FAS",(0.00%)
same,"change of attack times score, patients (%)","1 month after treatment-baseline, change −5, PP",(0.00%)
same,"change of attack times score, patients (%)","1 month after treatment-baseline, change −6, FAS",(0.11%)
same,"change of attack times score, patients (%)","1 month after treatment-baseline, change −6, PP",(0.07%)
same,"attack times score, patients (%)","3 months after treatment, score 0, FAS",(40.02%)
same,"attack times score, patients (%)","3 months after treatment, score 0, PP",(40.46%)
same,"attack times score, patients (%)","3 months after treatment, score 1, FAS",(14.11%)
same,"attack times score, patients (%)","3 months after treatment, score 1, PP",(13.92%)
same,"attack times score, patients (%)","3 months after treatment, score 2, FAS",(41.46%)
same,"attack times score, patients (%)","3 months after treatment, score 2, PP",(41.89%)
same,"attack times score, patients (%)","3 months after treatment, score 4, FAS",(4.30%)
same,"attack times score, patients (%)","3 months after treatment, score 4, PP",(3.60%)
same,"attack times score, patients (%)","3 months after treatment, score 6, FAS",(0.11%)
same,"attack times score, patients (%)","3 months after treatment, score 6, PP",(0.14%)
same,"change of attack times score, patients (%)","3 months after treatment-baseline, change 0, FAS",(65.52%)
same,"change of attack times score, patients (%)","3 months after treatment-baseline, change 0, PP",(65.15%)
same,"change of attack times score, patients (%)","3 months after treatment-baseline, change 1, FAS",(3.10%)
same,"change of attack times score, patients (%)","3 months after treatment-baseline, change 1, PP",(2.79%)
same,"change of attack times score, patients (%)","3 months after treatment-baseline, change 2, FAS",(2.24%)
same,"change of attack times score, patients (%)","3 months after treatment-baseline, change 2, PP",(1.83%)
same,"change of attack times score, patients (%)","3 months after treatment-baseline, change 3, FAS",(0.00%)
same,"change of attack times score, patients (%)","3 months after treatment-baseline, change 4, FAS",(0.17%)
same,"change of attack times score, patients (%)","3 months after treatment-baseline, change 4, PP",(0.14%)
same,"change of attack times score, patients (%)","3 months after treatment-baseline, change −1, FAS",(10.96%)
same,"change of attack times score, patients (%)","3 months after treatment-baseline, change −1, PP",(11.21%)
same,"change of attack times score, patients (%)","3 months after treatment-baseline, change −2, FAS",(15.78%)
same,"change of attack times score, patients (%)","3 months after treatment-baseline, change −2, PP",(16.51%)
same,"change of attack times score, patients (%)","3 months after treatment-baseline, change −3, FAS",(0.46%)
same,"change of attack times score, patients (%)","3 months after treatment-baseline, change −3, PP",(0.54%)
same,"change of attack times score, patients (%)","3 months after treatment-baseline, change −4, FAS",(1.43%)
same,"change of attack times score, patients (%)","3 months after treatment-baseline, change −4, PP",(1.56%)
same,"change of attack times score, patients (%)","3 months after treatment-baseline, change −5, FAS",(0.11%)
same,"change of attack times score, patients (%)","3 months after treatment-baseline, change −5, PP",(0.14%)
same,"change of attack times score, patients (%)","3 months after treatment-baseline, change −6, FAS",(0.23%)
same,"change of attack times score, patients (%)","3 months after treatment-baseline, change −6, PP",(0.14%)
same,"attack times score, patients (%)","6 months after treatment, score 0, FAS",(44.55%)
same,"attack times score, patients (%)","6 months after treatment, score 0, PP",(45.98%)
same,"attack times score, patients (%)","6 months after treatment, score 1, FAS",(15.54%)
same,"attack times score, patients (%)","6 months after treatment, score 1, PP",(15.92%)
same,"attack times score, patients (%)","6 months after treatment, score 2, FAS",(36.81%)
same,"attack times score, patients (%)","6 months after treatment, score 2, PP",(36.17%)
same,"attack times score, patients (%)","6 months after treatment, score 4, FAS",(3.04%)
same,"attack times score, patients (%)","6 months after treatment, score 4, PP",(1.85%)
same,"attack times score, patients (%)","6 months after treatment, score 6, FAS",(0.06%)
same,"attack times score, patients (%)","6 months after treatment, score 6, PP",(0.07%)
same,"change of attack times score, patients (%)","6 months after treatment-baseline, change 0, FAS",(57.95%)
same,"change of attack times score, patients (%)","6 months after treatment-baseline, change 0, PP",(56.80%)
same,"change of attack times score, patients (%)","6 months after treatment-baseline, change 1, FAS",(2.47%)
same,"change of attack times score, patients (%)","6 months after treatment-baseline, change 1, PP",(1.92%)
same,"change of attack times score, patients (%)","6 months after treatment-baseline, change −1, FAS",(15.20%)
same,"change of attack times score, patients (%)","6 months after treatment-baseline, change −1, PP",(16.07%)
same,"change of attack times score, patients (%)","6 months after treatment-baseline, change −2, FAS",(18.70%)
same,"change of attack times score, patients (%)","6 months after treatment-baseline, change −2, PP",(19.92%)
same,"change of attack times score, patients (%)","6 months after treatment-baseline, change −3, FAS",(0.92%)
same,"change of attack times score, patients (%)","6 months after treatment-baseline, change −3, PP",(1.10%)
same,"change of attack times score, patients (%)","6 months after treatment-baseline, change −4, FAS",(1.78%)
same,"change of attack times score, patients (%)","6 months after treatment-baseline, change −4, PP",(1.92%)
same,"change of attack times score, patients (%)","6 months after treatment-baseline, change −5, FAS",(0.00%)
same,"change of attack times score, patients (%)","6 months after treatment-baseline, change −5, PP",(0.00%)
same,"change of attack times score, patients (%)","6 months after treatment-baseline, change −6, FAS",(0.34%)
same,"change of attack times score, patients (%)","6 months after treatment-baseline, change −6, PP",(0.27%)
same,"attack times score, patients (%)","9 months after treatment, score 0, FAS",(47.31%)
same,"attack times score, patients (%)","9 months after treatment, score 0, PP",(49.06%)
same,"attack times score, patients (%)","9 months after treatment, score 1, FAS",(20.30%)
same,"attack times score, patients (%)","9 months after treatment, score 1, PP",(21.62%)
same,"attack times score, patients (%)","9 months after treatment, score 2, FAS",(30.22%)
same,"attack times score, patients (%)","9 months after treatment, score 2, PP",(28.34%)
same,"attack times score, patients (%)","9 months after treatment, score 4, FAS",(2.06%)
same,"attack times score, patients (%)","9 months after treatment, score 4, PP",(0.83%)
same,"attack times score, patients (%)","9 months after treatment, score 6, FAS",(0.11%)
same,"attack times score, patients (%)","9 months after treatment, score 6, PP",(0.14%)
same,"attack times score, patients (%)","12 months after treatment, score 0, FAS",(52.12%)
same,"attack times score, patients (%)","12 months after treatment, score 0, PP",(55.03%)
same,"attack times score, patients (%)","12 months after treatment, score 1, FAS",(22.02%)
same,"attack times score, patients (%)","12 months after treatment, score 1, PP",(23.88%)
same,"attack times score, patients (%)","12 months after treatment, score 2, FAS",(23.91%)
same,"attack times score, patients (%)","12 months after treatment, score 2, PP",(20.53%)
same,"attack times score, patients (%)","12 months after treatment, score 4, FAS",(1.89%)
same,"attack times score, patients (%)","12 months after treatment, score 4, PP",(0.56%)
same,"attack times score, patients (%)","12 months after treatment, score 6, FAS",(0.06%)
same,"change of attack times score, patients (%)","12 months after treatment-baseline, change 0, FAS",(45.61%)
same,"change of attack times score, patients (%)","12 months after treatment-baseline, change 0, PP",(41.86%)
same,"change of attack times score, patients (%)","12 months after treatment-baseline, change 1, FAS",(2.07%)
same,"change of attack times score, patients (%)","12 months after treatment-baseline, change 1, PP",(1.33%)
same,"change of attack times score, patients (%)","12 months after treatment-baseline, change 2, FAS",(1.72%)
same,"change of attack times score, patients (%)","12 months after treatment-baseline, change 2, PP",(1.19%)
same,"change of attack times score, patients (%)","12 months after treatment-baseline, change 3, FAS",(0.06%)
same,"change of attack times score, patients (%)","12 months after treatment-baseline, change 4, FAS",(0.17%)
same,"change of attack times score, patients (%)","12 months after treatment-baseline, change 4, PP",(0.14%)
same,"change of attack times score, patients (%)","12 months after treatment-baseline, change −1, FAS",(22.89%)
same,"change of attack times score, patients (%)","12 months after treatment-baseline, change −1, PP",(25.44%)
same,"change of attack times score, patients (%)","12 months after treatment-baseline, change −2, FAS",(23.01%)
same,"change of attack times score, patients (%)","12 months after treatment-baseline, change −2, PP",(25.02%)
same,"change of attack times score, patients (%)","12 months after treatment-baseline, change −3, FAS",(0.86%)
same,"change of attack times score, patients (%)","12 months after treatment-baseline, change −3, PP",(1.05%)
same,"change of attack times score, patients (%)","12 months after treatment-baseline, change −4, FAS",(3.16%)
same,"change of attack times score, patients (%)","12 months after treatment-baseline, change −4, PP",(3.56%)
same,"change of attack times score, patients (%)","12 months after treatment-baseline, change −5, FAS",(0.06%)
same,"change of attack times score, patients (%)","12 months after treatment-baseline, change −5, PP",(0.07%)
same,"change of attack times score, patients (%)","12 months after treatment-baseline, change −6, FAS",(0.40%)
same,"change of attack times score, patients (%)","12 months after treatment-baseline, change −6, PP",(0.35%)
same,"attack times score, patients (%)","Baseline, score 0, FAS",(27.54%)
same,"attack times score, patients (%)","Baseline, score 0, PP",(26.99%)
same,"attack times score, patients (%)","Baseline, score 1, FAS",(9.06%)
